# Assay results as given in patent US8404859B2, “Thiazole and thiophene compounds” (Hoffmann-La Roche Inc., priority 2011, dated 2013).
# What was measured:
# Mac-1/ICAM-1 = Mac-1/ICAM-1 (Homo sapiens, UniProt P05107+P11215); test: Mac-1/ICAM-1 ELISA; settings: Mac-1 receptor coated plates, 5dICAM-Fc binding
# Experimental: (§1) sLFA-1/ICAM-1 ELISA and Mac-1/ICAM-1 ELISA
# (§2) Plates were coated with either 50 μl/well of 2.0 ug/ml solution of sLFA-1 or Mac-1 receptor in divalent cation buffer (1 mM MnCI2, 0.14M NaCl, 20 mM HEPES pH 7.2) at 4° C. overnight. Two hundred fifty μl of blocking buffer (1% BSA in divalent cation buffer) was added to each well 1 hour at 37° C. Plates were washed 3 times with wash buffer (TBS/0.05% Tween-20/1 mM MnCl2). The compound to be tested was solubilized in DMSO. A series of 1:3 dilutions were performed to achieve a concentration range of 0.45 nM-3 uM. Fifty μl of binding buffer (0.5% BSA in divalent cation buffer)/1% DMSO and 50 μl of the solutions to be tested were added to the appropriate wells and incubated for 1 hour. Fifty μl of 5dICAM-Fc (27 ng/ml) was added to the appropriate wells and 50 μl binding buffer was added to non-specific binding wells and incubated for 2 hours and washed. One hundred μl of 1:4000 HRP-goat anti-huIgG was added to each well and incubated for 1 hour and washed. One hundred μl of 1:1 TMB solution was added to each well and developed for 20 min at room temperature. Color development was stopped by adding 100 μl H3PO4 to each well. Absorbance was measured at 450 nm.
# sLFA-1/ICAM-1 = sLFA-1/ICAM-1 (Homo sapiens, UniProt P05107+P20701, DEL701-769); test: sLFA-1/ICAM-1 ELISA; settings: sLFA-1 coated plates, 5dICAM-Fc binding, read-out: LFA/ICAM (IC50)
# Chain of sLFA-1/ICAM-1 (P20701 26-1090 limits assumed, stated change not applied): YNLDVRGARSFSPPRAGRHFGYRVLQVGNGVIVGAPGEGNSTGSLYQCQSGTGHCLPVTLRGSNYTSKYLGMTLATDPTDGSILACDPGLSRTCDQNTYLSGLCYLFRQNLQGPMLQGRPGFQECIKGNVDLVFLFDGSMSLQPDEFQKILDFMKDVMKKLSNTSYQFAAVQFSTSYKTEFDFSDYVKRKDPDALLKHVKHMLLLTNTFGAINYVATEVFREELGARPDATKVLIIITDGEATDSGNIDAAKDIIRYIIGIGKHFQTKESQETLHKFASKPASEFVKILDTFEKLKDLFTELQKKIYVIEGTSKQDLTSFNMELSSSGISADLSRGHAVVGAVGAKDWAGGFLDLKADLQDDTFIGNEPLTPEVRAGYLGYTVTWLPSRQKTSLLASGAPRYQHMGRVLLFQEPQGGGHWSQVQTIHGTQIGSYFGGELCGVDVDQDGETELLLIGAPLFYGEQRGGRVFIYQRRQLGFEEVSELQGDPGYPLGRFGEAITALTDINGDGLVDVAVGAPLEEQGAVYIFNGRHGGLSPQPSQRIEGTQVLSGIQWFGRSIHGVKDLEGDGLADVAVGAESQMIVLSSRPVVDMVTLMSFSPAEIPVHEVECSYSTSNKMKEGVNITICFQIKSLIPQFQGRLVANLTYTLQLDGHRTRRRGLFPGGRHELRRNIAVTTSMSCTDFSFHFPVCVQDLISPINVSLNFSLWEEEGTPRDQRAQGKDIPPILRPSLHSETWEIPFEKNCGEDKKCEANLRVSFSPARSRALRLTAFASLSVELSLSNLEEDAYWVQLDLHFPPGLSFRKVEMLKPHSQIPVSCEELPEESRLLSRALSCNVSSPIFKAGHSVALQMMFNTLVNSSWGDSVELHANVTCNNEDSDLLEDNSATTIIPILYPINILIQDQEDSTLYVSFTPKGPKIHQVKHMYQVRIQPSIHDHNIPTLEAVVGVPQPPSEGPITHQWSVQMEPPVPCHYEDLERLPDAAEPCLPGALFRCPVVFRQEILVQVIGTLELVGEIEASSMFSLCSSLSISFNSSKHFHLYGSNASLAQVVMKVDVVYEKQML
# Chain of sLFA-1/ICAM-1 (P05107 23-700 limits assumed, stated change not applied): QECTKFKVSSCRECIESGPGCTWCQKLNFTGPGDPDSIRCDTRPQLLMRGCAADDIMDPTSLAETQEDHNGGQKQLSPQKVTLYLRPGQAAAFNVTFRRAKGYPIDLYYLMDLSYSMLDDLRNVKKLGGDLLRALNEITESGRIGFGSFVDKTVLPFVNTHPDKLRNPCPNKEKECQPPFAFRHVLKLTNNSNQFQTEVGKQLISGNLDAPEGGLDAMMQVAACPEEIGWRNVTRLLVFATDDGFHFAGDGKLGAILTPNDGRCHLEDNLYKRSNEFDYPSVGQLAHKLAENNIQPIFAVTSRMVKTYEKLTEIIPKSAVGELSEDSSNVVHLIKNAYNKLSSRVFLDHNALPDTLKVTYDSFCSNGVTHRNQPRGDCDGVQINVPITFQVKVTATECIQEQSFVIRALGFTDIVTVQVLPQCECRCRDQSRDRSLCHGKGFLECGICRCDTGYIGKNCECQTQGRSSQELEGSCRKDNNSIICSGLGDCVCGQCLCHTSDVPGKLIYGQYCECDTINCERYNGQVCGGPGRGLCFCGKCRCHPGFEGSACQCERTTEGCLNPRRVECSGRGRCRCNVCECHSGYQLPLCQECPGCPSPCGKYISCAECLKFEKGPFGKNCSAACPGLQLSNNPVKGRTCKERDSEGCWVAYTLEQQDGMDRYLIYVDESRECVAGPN
# Experimental: as §1, §2
# Chain of Mac-1/ICAM-1 (P05107 23-769, other chains not shown): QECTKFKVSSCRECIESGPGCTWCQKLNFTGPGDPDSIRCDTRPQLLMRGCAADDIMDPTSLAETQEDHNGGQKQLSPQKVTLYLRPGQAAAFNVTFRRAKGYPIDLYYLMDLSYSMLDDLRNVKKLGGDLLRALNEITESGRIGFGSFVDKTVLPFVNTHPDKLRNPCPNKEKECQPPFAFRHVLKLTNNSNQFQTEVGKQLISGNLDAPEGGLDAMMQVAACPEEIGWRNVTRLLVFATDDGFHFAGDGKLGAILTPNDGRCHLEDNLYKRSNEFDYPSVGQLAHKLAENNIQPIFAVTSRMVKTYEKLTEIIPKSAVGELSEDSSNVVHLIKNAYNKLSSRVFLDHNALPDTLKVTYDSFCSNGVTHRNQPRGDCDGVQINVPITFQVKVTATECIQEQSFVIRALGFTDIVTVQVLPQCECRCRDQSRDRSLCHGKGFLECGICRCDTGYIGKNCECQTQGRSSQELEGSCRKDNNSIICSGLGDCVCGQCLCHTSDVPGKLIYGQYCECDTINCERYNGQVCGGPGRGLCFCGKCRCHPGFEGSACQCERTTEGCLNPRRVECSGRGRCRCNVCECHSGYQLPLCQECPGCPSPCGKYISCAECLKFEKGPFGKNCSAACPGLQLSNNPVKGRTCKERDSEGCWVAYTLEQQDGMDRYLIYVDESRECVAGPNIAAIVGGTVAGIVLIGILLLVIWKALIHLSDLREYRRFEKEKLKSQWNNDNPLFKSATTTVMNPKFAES
SMILES,IC50 (Mac-1/ICAM-1),IC50 (sLFA-1/ICAM-1)
"Cc1nc(NC(=O)Cc2cccc(O)c2)sc1C(=O)N[C@@H](CNC(=O)c1cccs1)C(=O)O [Example 2, (S)-2-({2-[2-(3-Hydroxy-phenyl)-acetylamino]-4-methyl-thiazole-5-carbonyl}-amino)-3-[(thiophene-2-carbonyl)-amino]-propionic acid]",58 nM,4 nM
"O=C(Cc1cccc(O)c1)Nc1ncc(C(=O)N[C@@H](CNC(=O)c2cccs2)C(=O)O)s1 [Example 3, (S)-2-({2-[2-(3-Hydroxy-phenyl)-acetylamino]-thiazole-5-carbonyl}-amino)-3-[(thiophene-2-carbonyl)-amino]-propionic acid]",> 3000 nM,85 nM
"Cc1nc(NC(=O)Cc2cccc(O)c2)sc1C(=O)N[C@@H](CNC(=O)c1cccc(O)c1)C(=O)O [Example 5, (S)-3-(3-Hydroxy-benzoylamino)-2-({2-[2-(3-hydroxy-phenyl)-acetylamino]-4-methyl-thiazole-5-carbonyl}-amino)-propionic acid]",300 nM,2 nM
"Cc1nc(NC(=O)Cc2cccc(O)c2)sc1C(=O)N[C@@H](CNC(=O)c1ccsc1)C(=O)O [Example 7, (S)-2-({2-[2-(3-Hydroxy-phenyl)-acetylamino]-4-methyl-thiazole-5-carbonyl}-amino)-3-[(thiophene-3-carbonyl)-amino]-propionic acid]",30 nM,5 nM
"O=C(Cc1cccc(O)c1)Nc1nc(Cl)c(C(=O)N[C@@H](CNC(=O)c2cccs2)C(=O)O)s1 [Example 8, (S)-2-({4-Chloro-2-[2-(3-hydroxy-phenyl)-acetylamino]-thiazole-5-carbonyl}-amino)-3-[(thiophene-2-carbonyl)-amino]-propionic acid]",32 nM,7 nM
"O=C(Cc1cccc(O)c1)Nc1nc(C(F)(F)F)c(C(=O)N[C@@H](CNC(=O)c2cccs2)C(=O)O)s1 [Example 9, (S)-2-([2-[2-(3-Hydroxy-phenyl)-acetylamino]-4-trifluoromethyl-thiazole-5-carbonyl]-amino)-3-[(thiophene-2-carbonyl)-amino]-propionic acid]",82 nM,30 nM
"Cc1nc(NC(=O)CCc2cccc(O)c2)sc1C(=O)N[C@@H](CNC(=O)c1cc(O)cc(O)c1)C(=O)O [Example 10, (S)-3-(3,5-Dihydroxy-benzoylamino)-2-({2-[3-(3-hydroxy-phenyl)-propionylamino]-4-methyl-thiazole-5-carbonyl}-amino)-propionic acid]",20 nM,44 nM
"Cc1nc(NCCc2cccc(O)c2)sc1C(=O)N[C@@H](CNC(=O)c1cc(O)cc(O)c1)C(=O)O [Example 12, (S)-3-(3,5-Dihydroxy-benzoylamino)-2-({2-[2-(3-hydroxy-phenyl)-ethylamino]-4-methyl-thiazole-5-carbonyl}-amino)-propionic acid]",27 nM,13 nM
"Cc1nc(OCCCc2cccc(O)c2)sc1C(=O)N[C@@H](CNC(=O)c1cccs1)C(=O)O [Example 13, (S)-2-({2-[3-(3-Hydroxy-phenyl)-propoxy]-4-methyl-thiazole-5-carbonyl}-amino)-3-[(thiophene-2-carbonyl)-amino]-propionic acid]",> 3000 nM,52 nM
"Cc1nc(NC(=O)Cc2cccc3[nH]ncc23)sc1C(=O)N[C@@H](CNC(=O)c1cccs1)C(=O)O [Example 14, (S)-2-{[2-(2-1H-Indazol-4-yl-acetylamino)-4-methyl-thiazole-5-carbonyl]-amino}-3-[(thiophene-2-carbonyl)-amino]-propionic acid]",89 nM,8 nM
"Cc1nc(NC(=O)Cc2cccc3[nH]ncc23)sc1C(=O)N[C@@H](CNC(=O)c1cc(O)cc(O)c1)C(=O)O [Example 15, (S)-3-(3,5-Dihydroxy-benzoylamino)-2-{[2-(2-1H-indazol-4-yl-acetylamino)-4-methyl-thiazole-5-carbonyl}-amino]-propionic acid]",12 nM,3 nM
"Cc1nc(NCCCc2cccc3[nH]ncc23)sc1C(=O)N[C@@H](CNC(=O)c1cccs1)C(=O)O [Example 17, (S)-2-([2-[3-(1H-Indazol-4-yl)-propylamino]-4-methyl-thiazole-5-carbonyl]-amino)-3-[(thiophene-2-carbonyl)-amino]-propionic acid]",294 nM,223 nM
"Cc1cc(C(=O)NCc2cccc(O)c2)sc1C(=O)N[C@@H](CNC(=O)c1cccs1)C(=O)O [Example 32, (S)-2-{[5-(3-hydroxy-benzylcarbamoyl)-3-methyl-thiophen-2-carbonyl]-amino}-3-[(thiophene-2-carbonyl)-amino]-propionic acid]",94 nM,19 nM
CC(C)(C)c1cc(C(=O)NCc2cccc(O)c2)sc1C(=O)N[C@@H](CNC(=O)c1cccs1)C(=O)O [Example 33],300 nM,149 nM
"Cc1cc(C(=O)NCc2cccc3[nH]ccc23)sc1C(=O)N[C@@H](CNC(=O)c1cccs1)C(=O)O [Example 34, (S)-2-({5-[(1H-indol-4-ylmethyl)carbamoyl]-3-methyl-thiophen-2-carbonyl}-amino)-3-[(thiophene-2-carbonyl)-amino]-propionic acid]",> 3000 nM,516 nM
"Cc1cc(C(=O)NCc2cccc3c2CC(=O)N3)sc1C(=O)N[C@@H](CNC(=O)c1cccs1)C(=O)O [Example 35, (S)-2-({3-methyl-5-[(2-oxo-2,3-dihydro-11′-indol-4-ylmethyl)carbamoyl]-thiophen-2-carbonyl}-amino)-3-[(thiophene-2-carbonyl)-amino]-propionic acid]",> 3000 nM,671 nM
"Cc1cc(C(=O)NCc2cccc3[nH]ncc23)sc1C(=O)N[C@@H](CNC(=O)c1cccs1)C(=O)O [Example 36, (S)-2-({5-[(1H-indazol-4-ylmethyl)-carbamoyl]-3-methyl-thiophen-2-carbonyl}-amino)-3-[(thiophene-2-carbonyl)-amino]-propionic acid]",48 nM,24 nM
"Cc1cc(C(=O)NCc2cccc(O)c2)sc1C(=O)N[C@@H](CNC(=O)c1cc(O)cc(O)c1)C(=O)O [Example 38, (S)-3-(3,5-dihydroxy-benzoylamino)-2-{[5-(3-hydroxy-benzylcarbamoyl)-3-methyl-thiophen-2-carbonyl]-amino}-propionic acid]",7 nM,2 nM
Cc1cc(C(=O)NCc2cccc(O)c2)sc1C(=O)N[C@@H](CNC(=O)c1cc(=O)[nH]c(=O)[nH]1)C(=O)O [Example 39],> 3000 nM,55 nM
Cc1cc(C(=O)NCc2cccc(O)c2)sc1C(=O)N[C@@H](CNC(=O)c1cccc(O)c1)C(=O)O [Example 40],23 nM,2 nM
Cc1cc(C(=O)NCc2cccc(O)c2)sc1C(=O)N[C@@H](CNC(=O)c1cnccn1)C(=O)O [Example 41],> 3000 nM,21 nM
Cc1cc(C(=O)NCc2cccc(O)c2)sc1C(=O)N[C@@H](CNC(=O)c1ccc2[nH]cnc2c1)C(=O)O [Example 42],> 3000 nM,35 nM
"Cc1cc(C(=O)NCCc2cccc(O)c2)sc1C(=O)N[C@@H](CNC(=O)c1cc(O)cc(O)c1)C(=O)O [Example 49, (S)-3-(3,5-dihydroxy-benzoylamino)-2-([5-[2-(3-hydroxy-phenyl)-ethyl-carbamoyl]-3-methyl-thiophen-2-carbonyl]-amino)-propionic acid]",207 nM,18 nM
"O=C(NC[C@H](NC(=O)c1sc(C(=O)NCc2cccc3[nH]ccc23)cc1C(F)(F)F)C(=O)O)c1cccs1 [Example 50, (S)-2-({5-[(1H-Indol-4-ylmethyl)-carbamoyl]-3-trifluoromethyl-thiophene-2-carbonyl}-amino)-3-[(thiophene-2-carbonyl)-amino]-propionic acid]",> 3000 nM,344 nM
"O=C(NC[C@H](NC(=O)c1sc(C(=O)NCc2cccc(O)c2)cc1-c1ccccc1)C(=O)O)c1cccs1 [Example 53, (S)-2-{[5-(3-Hydroxy-benzylcarbamoyl)-3-phenyl-thiophene-2-carbonyl]-amino}-3-[(thiophene-2-carbonyl)-amino]-propionic acid]",,1550 nM
"N#Cc1cc(C(=O)NCc2cccc(O)c2)sc1C(=O)N[C@@H](CNC(=O)c1cccs1)C(=O)O [Example 65, (S)-2-{[3-Cyano-5-(3-hydroxy-benzylcarbamoyl)-thiophene-2-carbonyl]-amino}-3-[(thiophene-2-carbonyl)-amino]-propionic acid]",,3 nM
"N#Cc1cc(C(=O)NCc2cccc3[nH]ncc23)sc1C(=O)N[C@@H](CNC(=O)c1cc(O)cc(O)c1)C(=O)O [Example 66, (S)-2-({3-Cyano-5-[(1H-indazol-4-ylmethyl)-carbamoyl]-thiophene-2-carbonyl}-amino)-3-(3,5-dihydroxy-benzoylamino)-propionic acid]",,41 nM
